{"source": "patent US10820591B2", "about": "“Substituted sulfonyl amides for controlling animal pests” (Bayer Aktiengesellschaft, priority 2016, dated 2020)", "data": [{"tested_on": "Meloidogyne incognita", "test": "Meloidogyne incognita test (sand, lettuce, gall formation)", "type": "in vivo", "details": "Meloidogyne incognita, 336 h, 20 ppm, after 14 days; read-out: nematicidal efficacy (formation of galls)", "method": "Meloidogyne incognita Test [table] To produce a suitable active compound preparation, 1 part by weight of active compound is mixed with the stated amount of solvent and the concentrate is diluted to the desired concentration with water. Vessels are filled with sand, active compound solution, an egg/larvae suspension of the southern root-knot nematode (Meloidogyne incognita) and lettuce seeds. The lettuce seeds germinate and the plants develop. The galls develop on the roots. After 14 days, the nematicidal efficacy in % is determined by the formation of galls. 100% means that no galls were found; 0% means that the number of galls on the treated plants corresponds to the untreated control.", "units": {"pest or weed control at 20 ppm": "%"}, "values": [{"smiles": "O=C(NS(=O)(=O)c1c(Cl)cccc1Cl)c1cn(-c2cccc(Cl)c2)cn1", "note": "[I-175]", "pest or weed control at 20 ppm": 100}, {"smiles": "O=C(NS(=O)(=O)c1ccccc1Cl)c1cn(-c2cccc(C(F)(F)F)c2)cn1", "note": "[I-176]", "pest or weed control at 20 ppm": 100}, {"smiles": "O=C(NS(=O)(=O)c1c(Cl)cccc1Cl)c1cn(-c2cccc(C(F)(F)F)c2)cn1", "note": "[I-177]", "pest or weed control at 20 ppm": 100}, {"smiles": "COc1ccc(Cl)c(S(=O)(=O)NC(=O)c2cn(-c3cccc(C(F)(F)F)c3)cn2)c1", "note": "[I-178]", "pest or weed control at 20 ppm": 100}, {"smiles": "COc1ccc(Cl)c(S(=O)(=O)NC(=O)c2cn(-c3cccc(Cl)c3)cn2)c1", "note": "[I-179]", "pest or weed control at 20 ppm": 90}, {"smiles": "O=C(NS(=O)(=O)c1ccccc1)c1cn(-c2cc(Cl)cc(Cl)c2)cn1", "note": "[I-180]", "pest or weed control at 20 ppm": 100}, {"smiles": "O=C(NS(=O)(=O)c1ccccc1Cl)c1cn(-c2cc(Cl)cc(Cl)c2)cn1", "note": "[I-181]", "pest or weed control at 20 ppm": 100}, {"smiles": "O=C(NS(=O)(=O)c1ccc(Cl)cc1)c1cn(-c2cc(Cl)cc(Cl)c2)cn1", "note": "[I-182]", "pest or weed control at 20 ppm": 90}, {"smiles": "O=C(NS(=O)(=O)c1ccccc1Cl)c1cn(-c2ccccc2Cl)cn1", "note": "[I-183]", "pest or weed control at 20 ppm": 90}, {"smiles": "O=C(NS(=O)(=O)c1c(Cl)cccc1Cl)c1cn(-c2ccccc2Cl)cn1", "note": "[I-184]", "pest or weed control at 20 ppm": 100}, {"smiles": "O=C(NS(=O)(=O)c1ccccc1Cl)c1cn(-c2ccc(Cl)cc2)cn1", "note": "[I-185]", "pest or weed control at 20 ppm": 100}, {"smiles": "O=C(NS(=O)(=O)c1c(Cl)cccc1Cl)c1cn(-c2ccc(Cl)cc2)cn1", "note": "[I-186]", "pest or weed control at 20 ppm": 90}, {"smiles": "O=C(NS(=O)(=O)c1c(Cl)cccc1Cl)c1cn(-c2cc(Cl)cc(Cl)c2)cn1", "note": "[I-187]", "pest or weed control at 20 ppm": 100}, {"smiles": "COc1ccc(Cl)c(S(=O)(=O)NC(=O)c2cn(-c3cc(Cl)cc(Cl)c3)cn2)c1", "note": "[I-188]", "pest or weed control at 20 ppm": 100}, {"smiles": "O=C(NS(=O)(=O)c1ccc(Cl)cc1Cl)c1cn(-c2cc(Cl)cc(Cl)c2)cn1", "note": "[I-189]", "pest or weed control at 20 ppm": 90}, {"smiles": "COc1ccc(Cl)c(S(=O)(=O)NC(=O)c2cn(-c3ccc(Cl)cc3)cn2)c1", "note": "[I-190]", "pest or weed control at 20 ppm": 100}, {"smiles": "O=C(NS(=O)(=O)c1ccccc1Cl)c1cn(-c2ccccc2)cn1", "note": "[I-191]", "pest or weed control at 20 ppm": 100}, {"smiles": "O=C(NS(=O)(=O)c1c(Cl)cccc1Cl)c1cn(-c2ccccc2)cn1", "note": "[I-192]", "pest or weed control at 20 ppm": 100}, {"smiles": "O=C(NS(=O)(=O)c1ccccc1)c1cn(-c2ccc(Cl)c(Cl)c2)cn1", "note": "[I-193]", "pest or weed control at 20 ppm": 100}, {"smiles": "O=C(NS(=O)(=O)c1ccccc1)c1cn(-c2ccc(C(F)(F)F)cc2Cl)cn1", "note": "[I-194]", "pest or weed control at 20 ppm": 100}, {"smiles": "O=C(NS(=O)(=O)c1ccccc1)c1cn(-c2cc(Cl)ccc2Cl)cn1", "note": "[I-195]", "pest or weed control at 20 ppm": 100}, {"smiles": "O=C(NS(=O)(=O)c1ccccc1Cl)c1cn(-c2ccc(Cl)c(Cl)c2)cn1", "note": "[I-196]", "pest or weed control at 20 ppm": 100}, {"smiles": "O=C(NS(=O)(=O)c1c(Cl)cccc1Cl)c1cn(-c2ccc(C(F)(F)F)cc2Cl)cn1", "note": "[I-198]", "pest or weed control at 20 ppm": 100}, {"smiles": "O=C(NS(=O)(=O)c1ccccc1)c1cn(-c2ccc(Cl)cc2Cl)cn1", "note": "[I-199]", "pest or weed control at 20 ppm": 100}, {"smiles": "O=C(NS(=O)(=O)c1ccccc1Cl)c1cn(-c2ccc(Cl)cc2Cl)cn1", "note": "[I-200]", "pest or weed control at 20 ppm": 100}, {"smiles": "O=C(NS(=O)(=O)c1ccc(Cl)cc1)c1cn(-c2ccc(Cl)cc2Cl)cn1", "note": "[I-201]", "pest or weed control at 20 ppm": 80}, {"smiles": "O=C(NS(=O)(=O)c1ccc(Cl)cc1)c1cn(-c2ccc(Cl)c(Cl)c2)cn1", "note": "[I-202]", "pest or weed control at 20 ppm": 70}, {"smiles": "O=C(NS(=O)(=O)c1ccccc1Cl)c1cn(-c2cc(Cl)ccc2Cl)cn1", "note": "[I-203]", "pest or weed control at 20 ppm": 100}, {"smiles": "O=C(NS(=O)(=O)c1ccc(Cl)cc1)c1cn(-c2cc(Cl)ccc2Cl)cn1", "note": "[I-204]", "pest or weed control at 20 ppm": 100}, {"smiles": "O=C(NS(=O)(=O)c1c(Cl)cccc1Cl)c1cn(-c2cc(Cl)ccc2Cl)cn1", "note": "[I-205]", "pest or weed control at 20 ppm": 100}, {"smiles": "O=C(NS(=O)(=O)c1c(Cl)cccc1Cl)c1cn(-c2ccc(Cl)cc2Cl)cn1", "note": "[I-206]", "pest or weed control at 20 ppm": 100}, {"smiles": "O=C(NS(=O)(=O)c1cccc(Cl)c1)c1cn(-c2ccc(C(F)(F)F)cc2Cl)cn1", "note": "[I-207]", "pest or weed control at 20 ppm": 100}, {"smiles": "O=C(NS(=O)(=O)c1ccc(Cl)cc1Cl)c1cn(-c2ccc(Cl)cc2Cl)cn1", "note": "[I-208]", "pest or weed control at 20 ppm": 100}]}]}
